Activity calls are given as the source filed them.
Legend:
[1] = target: Eukaryotic translation initiation factor 4E (Mus musculus, UniProt P63073); experiment: eIF4E–eIF4G protein interaction inhibitors, dose response, biochemical, TR-FRET (AID 855); assay type: functional;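 note: potency for disrupting eIF4E binding to eIF4GI seen as loss of FRET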
[2] = inhibitors of firefly luciferase expression or activity, dose response, H4 neuroglioma cells, luminescence (AID 1990); assay type: functional, cell-based
[3] = Luminescence Cell-Based Dose Response HTS to Identify Inhibitors of 5'UTR Stem-Loop Driven Prion Protein mRNA Translation in H4 Neuroglioblastoma Cells. [Related pubchem assays: 1827 (Project Summary), 1813 (Primary HTS)]; assay type: functional
[4] = inhibitors of SNCA 5'UTR-driven reporter translation, confirmation, H4 neuroglioma cells, luminescence (AID 1988); assay type: functional, cell-based
Estrogen receptor beta [5] = target: T1, Estrogen receptor beta (Homo sapiens, UniProt Q92731);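 note: recombinant ER-beta bound to coactivator SRC1 peptide in presence of estradiol agonist; inhibitors block coactivator peptide binding and lower the FRET signal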
Estrogen receptor beta [6] = target: T1, Estrogen receptor beta; experiment: ERβ–SRC-3 coactivator interaction inhibitors, confirmation, orthogonal assay, biochemical, ELISA, streptavidin-HRP readout (AID 1060)
[7] = target: T2, Voltage-gated N-type calcium channel alpha-1B subunit/Amyloid beta A4 precursor protein-binding family A member 1 (Homo sapiens, UniProt Q00975+Q02410); assay type: protein assay
[8] = target: T2, Voltage-gated N-type calcium channel alpha-1B subunit/Amyloid beta A4 precursor protein-binding family A member 1; assay type: protein assay; remark: listed apart in the source
[9] = target: T3, Neuropeptides B/W receptor type 1 (Homo sapiens, UniProt P48145); experiment: Fluorescence-based dose response cell-based high throughput screening assay to identify antagonists of the G-protein coupled receptor 7 (GPR7). [Related pubchem assays: 1952 (Screening assay (GPR7 antagonists).), 1880 (Summary AID.)]; assay type: functional
T3 sequence (P48145 whole entry): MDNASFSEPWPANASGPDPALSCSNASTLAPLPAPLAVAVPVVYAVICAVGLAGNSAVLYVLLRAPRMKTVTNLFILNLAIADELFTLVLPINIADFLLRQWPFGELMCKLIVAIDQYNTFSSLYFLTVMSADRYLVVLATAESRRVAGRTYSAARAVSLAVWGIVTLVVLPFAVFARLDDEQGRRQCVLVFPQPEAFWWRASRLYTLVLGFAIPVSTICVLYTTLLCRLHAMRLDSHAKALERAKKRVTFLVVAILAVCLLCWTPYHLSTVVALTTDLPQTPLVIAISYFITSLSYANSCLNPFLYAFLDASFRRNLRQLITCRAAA

[10] = target: Melanin-concentrating hormone receptor 1 (Homo sapiens, UniProt Q99705); experiment: Fluorescence-based counterscreen for antagonists of the G-protein coupled receptor 7 (GPR7): cell-based high throughput dose response assay to identify antagonists of the melanin-concentrating hormone receptor 1 (MCHR1).; assay type: functional
[11] = target: T4, Eukaryotic translation initiation factor 2-alpha kinase 3 (Homo sapiens, UniProt Q9NZJ5); experiment: Dose response cell-based high-throughput screening assay to measure PERK inhibition. [Related pubchem assays: 1416 ]; assay type: functional
T4 sequence (Q9NZJ5 whole entry): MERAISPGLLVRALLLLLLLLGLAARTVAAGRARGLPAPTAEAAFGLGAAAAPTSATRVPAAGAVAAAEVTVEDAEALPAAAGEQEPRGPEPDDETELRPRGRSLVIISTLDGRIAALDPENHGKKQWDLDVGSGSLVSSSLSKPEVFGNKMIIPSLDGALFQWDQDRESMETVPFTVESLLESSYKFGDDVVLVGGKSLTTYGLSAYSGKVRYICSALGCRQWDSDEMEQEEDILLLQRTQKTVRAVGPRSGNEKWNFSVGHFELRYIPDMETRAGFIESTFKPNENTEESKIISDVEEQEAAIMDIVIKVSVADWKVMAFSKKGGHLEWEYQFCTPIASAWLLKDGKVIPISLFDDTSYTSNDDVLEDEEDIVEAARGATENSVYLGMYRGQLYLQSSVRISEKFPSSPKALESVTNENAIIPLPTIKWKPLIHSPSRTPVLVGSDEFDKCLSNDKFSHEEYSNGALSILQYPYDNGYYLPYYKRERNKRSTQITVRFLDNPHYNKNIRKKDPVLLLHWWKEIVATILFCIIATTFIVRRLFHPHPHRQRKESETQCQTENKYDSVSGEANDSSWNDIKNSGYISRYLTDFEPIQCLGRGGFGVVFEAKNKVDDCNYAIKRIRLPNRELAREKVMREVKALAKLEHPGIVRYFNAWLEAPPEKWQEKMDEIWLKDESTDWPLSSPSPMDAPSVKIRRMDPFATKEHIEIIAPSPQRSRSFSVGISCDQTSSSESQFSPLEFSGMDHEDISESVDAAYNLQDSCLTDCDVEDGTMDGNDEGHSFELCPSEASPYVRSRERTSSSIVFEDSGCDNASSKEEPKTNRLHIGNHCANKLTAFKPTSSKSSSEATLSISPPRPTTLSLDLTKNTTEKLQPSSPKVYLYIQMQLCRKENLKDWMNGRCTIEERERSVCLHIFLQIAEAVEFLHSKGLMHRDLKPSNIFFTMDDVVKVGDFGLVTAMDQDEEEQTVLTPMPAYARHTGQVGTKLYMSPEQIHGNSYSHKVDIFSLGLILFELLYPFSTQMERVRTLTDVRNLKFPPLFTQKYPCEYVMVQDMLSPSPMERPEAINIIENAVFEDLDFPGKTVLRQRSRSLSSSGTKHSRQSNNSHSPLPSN

[12] = target: T4, Eukaryotic translation initiation factor 2-alpha kinase 3; experiment: Counterscreen assay for PERK inhibitors: Dose response cell-based high throughput screening assay to measure inhibition of PERK at 6 hours. [Related pubchem assays: 1522, 1416 ]; assay type: functional
[13] = luciferase reporter signal reduction – luminescence, H4-C neuroglioblastoma cells, dose response (AID 2458); assay type: functional, cell-based;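 note: H4 neuroglioblastoma cells stably carrying a luciferase reporter gene fusion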
cells = assay type: functional, cell-based
[14] = growth suppression of PTEN-null colon cells, dose response, cell-based, HCT116 PTEN knockout (AID 1047); assay type: functional;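 note: HCT116 colon tumor cells with PTEN knocked out; cells exposed to compound for 60 hours before readout; potency for loss of cell viability measured by luminescence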
[15] = growth suppression of beta-catenin-knockout colon cells, dose response, cell-based, HCT116, human colon tumor (AID 1045); assay type: functional;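 note: HCT116 colon tumor cells with beta catenin knocked out; cells exposed to compound for 60 hours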
[16] = inhibitors of SNCA 5'UTR-driven translation, confirmation, luminescence, H4 neuroglioblastoma cells, dose confirmation (AID 2454); assay type: functional, cell-based;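 note: H4 neuroglioblastoma cells carrying an alpha-synuclein 5'UTR luciferase reporter; potency for inhibition of the luciferase signal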
[17] = cytotoxicity in HEK-293T cells, dose response, cytotoxicity control for TCR NF-kB inhibitor project, luminescence, T-cell screen hits (AID 489026); assay type: functional, cell-based;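 note: cells exposed to compound about 14 hours before the viability readout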

T1 sequence (Q92731 whole entry): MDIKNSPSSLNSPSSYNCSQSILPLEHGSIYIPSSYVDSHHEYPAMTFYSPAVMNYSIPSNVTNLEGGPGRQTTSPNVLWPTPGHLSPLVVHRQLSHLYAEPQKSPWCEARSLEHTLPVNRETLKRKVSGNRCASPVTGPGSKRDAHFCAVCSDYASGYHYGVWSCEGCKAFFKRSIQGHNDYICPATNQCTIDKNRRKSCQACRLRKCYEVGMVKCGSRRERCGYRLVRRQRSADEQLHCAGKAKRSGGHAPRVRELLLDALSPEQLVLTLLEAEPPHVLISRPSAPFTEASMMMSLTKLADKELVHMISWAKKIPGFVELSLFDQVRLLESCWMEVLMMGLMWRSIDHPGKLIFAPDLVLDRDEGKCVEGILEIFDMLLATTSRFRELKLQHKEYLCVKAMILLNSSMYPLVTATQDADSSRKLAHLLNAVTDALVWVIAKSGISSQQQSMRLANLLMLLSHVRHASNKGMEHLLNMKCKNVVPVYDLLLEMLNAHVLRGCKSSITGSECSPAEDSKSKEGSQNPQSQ
T2 sequence (Q00975 whole entry): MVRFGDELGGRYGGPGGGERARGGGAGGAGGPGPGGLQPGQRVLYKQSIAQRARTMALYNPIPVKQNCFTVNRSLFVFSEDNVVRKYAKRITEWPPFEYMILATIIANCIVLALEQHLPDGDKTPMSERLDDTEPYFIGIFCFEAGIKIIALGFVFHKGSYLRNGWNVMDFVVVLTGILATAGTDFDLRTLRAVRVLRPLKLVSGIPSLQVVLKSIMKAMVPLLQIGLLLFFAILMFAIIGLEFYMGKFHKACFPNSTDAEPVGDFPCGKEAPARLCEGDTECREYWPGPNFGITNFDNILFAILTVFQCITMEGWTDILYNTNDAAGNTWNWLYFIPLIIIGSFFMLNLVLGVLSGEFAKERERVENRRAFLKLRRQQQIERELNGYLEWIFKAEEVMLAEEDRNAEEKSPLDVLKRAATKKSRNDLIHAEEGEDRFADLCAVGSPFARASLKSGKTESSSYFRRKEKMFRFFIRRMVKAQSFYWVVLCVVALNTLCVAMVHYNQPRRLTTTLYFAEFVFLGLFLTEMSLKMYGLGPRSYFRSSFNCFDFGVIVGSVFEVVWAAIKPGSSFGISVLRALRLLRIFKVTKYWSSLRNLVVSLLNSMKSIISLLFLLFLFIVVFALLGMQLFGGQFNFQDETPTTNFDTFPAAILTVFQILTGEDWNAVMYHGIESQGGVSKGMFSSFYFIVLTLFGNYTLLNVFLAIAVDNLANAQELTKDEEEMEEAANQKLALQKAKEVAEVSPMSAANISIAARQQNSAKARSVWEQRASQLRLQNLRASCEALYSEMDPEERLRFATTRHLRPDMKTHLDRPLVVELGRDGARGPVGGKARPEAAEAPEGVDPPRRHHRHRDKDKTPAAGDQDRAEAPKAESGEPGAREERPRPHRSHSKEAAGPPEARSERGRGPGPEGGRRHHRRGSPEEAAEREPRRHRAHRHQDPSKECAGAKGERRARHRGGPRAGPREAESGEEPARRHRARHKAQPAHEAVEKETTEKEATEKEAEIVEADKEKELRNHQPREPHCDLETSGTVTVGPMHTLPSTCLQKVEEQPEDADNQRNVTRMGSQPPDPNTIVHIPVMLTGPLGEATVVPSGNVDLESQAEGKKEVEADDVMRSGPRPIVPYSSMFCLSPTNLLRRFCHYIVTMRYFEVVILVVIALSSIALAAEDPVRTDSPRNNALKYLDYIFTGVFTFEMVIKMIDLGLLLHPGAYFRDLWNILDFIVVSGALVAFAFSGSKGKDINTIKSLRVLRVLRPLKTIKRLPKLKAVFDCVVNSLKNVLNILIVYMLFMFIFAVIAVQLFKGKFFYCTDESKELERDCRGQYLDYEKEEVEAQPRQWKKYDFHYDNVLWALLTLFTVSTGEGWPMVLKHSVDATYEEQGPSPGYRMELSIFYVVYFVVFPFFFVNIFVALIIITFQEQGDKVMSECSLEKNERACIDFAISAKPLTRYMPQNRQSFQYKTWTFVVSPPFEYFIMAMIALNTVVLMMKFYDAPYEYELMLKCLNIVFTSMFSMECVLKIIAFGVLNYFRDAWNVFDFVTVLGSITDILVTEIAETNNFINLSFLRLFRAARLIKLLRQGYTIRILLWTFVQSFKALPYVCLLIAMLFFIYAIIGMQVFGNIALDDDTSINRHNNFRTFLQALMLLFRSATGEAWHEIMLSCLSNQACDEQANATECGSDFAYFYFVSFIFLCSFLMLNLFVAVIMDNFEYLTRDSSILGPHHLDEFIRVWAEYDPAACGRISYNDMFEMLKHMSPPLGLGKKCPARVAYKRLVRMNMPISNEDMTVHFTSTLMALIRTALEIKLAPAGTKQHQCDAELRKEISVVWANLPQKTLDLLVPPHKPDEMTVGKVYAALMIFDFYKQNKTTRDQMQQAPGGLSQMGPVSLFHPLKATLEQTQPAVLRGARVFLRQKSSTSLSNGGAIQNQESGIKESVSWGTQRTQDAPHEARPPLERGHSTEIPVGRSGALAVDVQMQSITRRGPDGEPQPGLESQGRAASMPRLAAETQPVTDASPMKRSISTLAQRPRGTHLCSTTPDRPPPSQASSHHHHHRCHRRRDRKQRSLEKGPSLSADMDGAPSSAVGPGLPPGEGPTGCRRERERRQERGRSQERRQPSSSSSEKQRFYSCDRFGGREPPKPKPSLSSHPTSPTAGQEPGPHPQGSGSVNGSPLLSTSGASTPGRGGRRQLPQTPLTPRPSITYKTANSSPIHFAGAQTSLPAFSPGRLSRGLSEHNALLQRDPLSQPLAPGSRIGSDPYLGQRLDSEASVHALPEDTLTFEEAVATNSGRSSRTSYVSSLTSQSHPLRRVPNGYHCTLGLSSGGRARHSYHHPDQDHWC
T2 sequence (Q02410 whole entry): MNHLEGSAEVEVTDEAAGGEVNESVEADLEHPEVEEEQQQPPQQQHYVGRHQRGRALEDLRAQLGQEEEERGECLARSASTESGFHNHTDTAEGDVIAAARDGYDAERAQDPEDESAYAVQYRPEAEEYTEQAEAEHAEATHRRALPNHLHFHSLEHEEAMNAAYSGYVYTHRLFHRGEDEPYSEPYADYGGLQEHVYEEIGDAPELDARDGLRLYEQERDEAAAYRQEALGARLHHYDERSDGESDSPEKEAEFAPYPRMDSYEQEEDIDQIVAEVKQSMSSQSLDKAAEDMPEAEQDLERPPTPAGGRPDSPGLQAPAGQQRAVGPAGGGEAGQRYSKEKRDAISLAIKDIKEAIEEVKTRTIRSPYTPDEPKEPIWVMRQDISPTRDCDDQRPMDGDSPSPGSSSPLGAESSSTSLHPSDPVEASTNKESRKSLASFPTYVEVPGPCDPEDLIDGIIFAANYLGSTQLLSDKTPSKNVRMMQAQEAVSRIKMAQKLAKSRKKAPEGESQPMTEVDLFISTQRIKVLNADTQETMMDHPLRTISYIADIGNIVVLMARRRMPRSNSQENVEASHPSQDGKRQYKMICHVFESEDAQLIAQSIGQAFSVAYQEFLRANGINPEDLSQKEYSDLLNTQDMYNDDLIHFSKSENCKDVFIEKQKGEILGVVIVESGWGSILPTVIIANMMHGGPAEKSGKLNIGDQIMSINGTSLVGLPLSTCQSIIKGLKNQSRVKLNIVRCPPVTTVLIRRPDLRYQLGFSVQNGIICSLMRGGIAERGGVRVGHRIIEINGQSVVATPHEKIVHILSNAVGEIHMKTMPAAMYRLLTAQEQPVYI
Chain of Eukaryotic translation initiation factor 4E (P63073 whole entry): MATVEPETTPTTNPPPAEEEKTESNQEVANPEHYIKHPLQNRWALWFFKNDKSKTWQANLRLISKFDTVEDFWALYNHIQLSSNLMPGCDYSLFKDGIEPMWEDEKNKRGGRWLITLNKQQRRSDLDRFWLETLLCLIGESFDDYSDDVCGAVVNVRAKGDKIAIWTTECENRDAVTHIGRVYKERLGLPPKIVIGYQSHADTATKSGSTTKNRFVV
Chain of Melanin-concentrating hormone receptor 1 (Q99705 whole entry): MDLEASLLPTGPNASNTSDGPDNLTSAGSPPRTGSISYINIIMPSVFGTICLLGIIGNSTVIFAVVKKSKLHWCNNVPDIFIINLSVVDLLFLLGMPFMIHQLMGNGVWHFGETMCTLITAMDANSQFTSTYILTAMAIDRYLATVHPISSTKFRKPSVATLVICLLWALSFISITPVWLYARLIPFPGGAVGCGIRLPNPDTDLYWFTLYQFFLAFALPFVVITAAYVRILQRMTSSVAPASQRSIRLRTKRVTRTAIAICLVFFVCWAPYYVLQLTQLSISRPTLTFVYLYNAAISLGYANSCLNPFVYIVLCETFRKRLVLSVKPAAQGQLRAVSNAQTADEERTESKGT

## O=C(NC1CCCCC1)C1CCN(c2cnccn2)CC1
[1]
  IC50: > 64 µM (inactive)

## Oc1ccccc1-c1nnc(SCCN2CCOCC2)n1Cc1ccccc1
[2]
  EC50: 9.74 µM (active)
[3]
  EC50: 8.21 µM (active)
[4]
  EC50: 7.29 µM (active)
Estrogen receptor beta [5]
  IC50: 3.51 µM (active)
Estrogen receptor beta [6]
  IC50: < 0.023 µM (not active)

## Cc1cc(C)c2c(=O)n(CC(=O)N3CCC(Cc4ccccc4)CC3)sc2n1
[7]
  IC50: 15.5 µM (active)
[8]
  IC50: > 50 µM (inactive)

## Cc1ccc(-n2c(SCC(N)=O)nnc2-c2ccc(S(=O)(=O)N3CCCCC3)cc2)c(C)c1
[9]
  IC50: 5.29 µM (active)
[10]
  IC50: 29.6 µM (not active)

## COC(=O)C(NC(C)=O)(Nc1ccc(C)cn1)C(F)(F)F (configuration not stated)
[11]
  EC50: > 55.7 µM (not active)
[12]
  EC50: > 55.7 µM (not active)

## COc1ccc2c3c([nH]c2c1)C1CC2C(CC(O)C(OC)C2CO)CN1CC3 (configuration not stated)
[11]
  EC50: > 55.7 µM (not active)
[12]
  EC50: > 55.7 µM (not active)

## CCn1c2ccccc2c2cc(Nc3cc(C)nc4ncnn34)ccc21
[2]
  EC50: < 0.1 µM (active)
[13]
  EC50: 0.265 µM (active)
cells
  EC50: 0.255 µM (active)
[4]
  EC50: < 0.1 µM (active)
[14]
  EC50: < 0.059 µM (active)
[15]
  EC50: < 0.059 µM (active)
[16]
  EC50: 0.354 µM (active)
[17]
  IC50: 43.4 µM (inactive)
